# What was measured:
# Assay type in all cases: cell-based, human
# HCT116 cells [1] = test: IncuCyte annexin V red real time apoptosis
# Experimental: For real time quantification of apoptosis induction, the fluorescent Caspase 3/7 and Annexin V red reagents, with an excitation maximum of 500 and 593 nm and an emission maximum of 530 and 614 nm, respectively, were used. The HCT116 cells were seeded at a density of 1,000 cell/well and allowed to grow overnight. The next day, compound 15k at 0, 2, 4, and 8μM was prepared and added, directly followed by the caspase 3/7 reagent at final concentration of 5μM or annexin V red reagent in final dilution of 1: 200. The cells were then incubated in IncuCyte Zoom live cell imaging and pictures were taken every 2 h for up to 50 h and analyzed using the integrated software. The IncuCyte® Caspase-3/7 apoptosis assay reagent couples the activated caspase-3/7 recognition motif (DEVD) to NucView™ 488, a DNA intercalating dye to enable quantification of apoptosis over time. Caspase-3/7 assay reagent is non-perturbing to cell growth and morphology. When added to cell culture medium, this inert, non-fluorescent substrate crosses the cell membrane, where it is cleaved by activated caspase-3/7, resulting in the release of the DNA dye and green fluorescent staining of nuclear DNA.
# caspase 3 = test: Western blot in HCT116 cells; conditions: 4 μM, p < 0.05 vs control
# Experimental: (§1) HCT116 cells were lysed to obtain cytoplasmic and nuclear protein fractions, according to the protocol used in previous publications (Alhadidi and Shah, [2017]). Briefly, the cells were seeded in and incubated with 15k for overnight at 4μM. The cells were washed using ice-cold PBS and scraped using a cell scraper and collected in 15ml tubes. The cells were centrifuged and the PBS was discarded and replaced with 400 μl of buffer A (10 mM HEPES, pH 7.9, 0.1 mM EDTA, 0.1 mM EGTA, 10 mM KCl, 1 mM dithiothreitol, and 0.5 mM phenylmethylsulfonyl fluoride) in each tube. The cells were allowed to swell under in the buffer for 15 min on ice. Subsequently, 0.1% Nonidet P-40 was added to each suspension for 1 min to disturb the plasma membrane. The nuclei were precipitated by centrifugation at 13,000 rpm for 1 min at 4°C. The cytoplasmic proteins were collected in the supernatant and stored at −80°C. Two hundred μl of Buffer B (20 mM HEPES, pH 7.9, 1 mM EDTA, 1 mM EGTA, 400 mM NaCl, 1 mM dithiothreitol, and 1 mM phenylmethylsulfonyl fluoride) was added to the pellets and left for 30 min on ice with periodic mixing. The samples were centrifuged at 13,000 rpm for 15 min at 4°C to obtain the nuclear fraction (supernatant). The bicinchoninic acid (BCA) quantification assay was used to determine the concentration of protein in the cell extracts. The Western blot was done as previously described (Tiwari et al., [2013]). Rabbit α-tubulin, 1:4,000 dilution, rabbit Bax (1:1,000), rabbit BAK (1:1,000), rabbit β-Catenin (1:4,000), rabbit DVL3 (1:4,000), mouse β-actin (1:5,000), E-cadherin (1:4,000), and N-cadherin (1:4,000), antibodies were used. Membranes were then washed and incubated for 1 h with horseradish peroxidase-labeled (HRP) anti-rabbit and anti-mouse secondary antibodies (1:5,000 dilutions). ChemiDoc Imaging Systems from Bio-Rad, (Hercules, California USA) was used to detect the blots. Finally, proteins were quantified using the image J software. Data were calculated as ratios to β-actin.
# N-cadherin = test: Western blot in HCT116 cells; conditions: 4 μM, p < 0.01 vs control
# Experimental: as §1
# Bak = test: Western blot in HCT116 cells; conditions: 4 μM, overnight
# Experimental: as §1
# DVL3 = test: Western blot in HCT116 cells; conditions: 4 μM, p < 0.01 vs vehicle
# Experimental: as §1
# cyclin B1 = test: Western blot in HCT116 cells; conditions: 4 μM, p < 0.01
# Experimental: as §1
# α-tubulin = test: Western blot in HCT116 cells; conditions: 4 μM, overnight, p < 0.01 vs vehicle
# Experimental: as §1
# Bcl-2 = test: Western blot in HCT116 cells; conditions: 4 μM, overnight, p < 0.05
# Experimental: as §1
# c-Myc = test: Western blot in HCT116 cells; conditions: 4 μM, p < 0.01 vs control
# Experimental: as §1
# E-cadherin = test: Western blot in HCT116 cells; conditions: 4 μM, overnight
# Experimental: as §1
# Bax (p21 and p18) = test: Western blot in HCT116 cells; conditions: 4 μM, overnight, p < 0.001
# Experimental: as §1
# HCT116 cells [2] = test: MitoTracker Red / Alexa Fluor 488 annexin V flow cytometry; conditions: overnight
# Experimental: The mitochondrial membrane potential and the induction of apoptosis were analyzed in HCT116 cells using the MitoTracker Red and Alexa Fluor 488 annexin V kits for flow cytometry as previously described (Karthikeyan et al., [2015]). Six well plates were used for seeding of cells, followed by incubation with 15j or 15k (0, 1, 2, and 4μM) for overnight. Subsequently, the cells were harvested, counted and 4 μl of a 10μM working solution of MitoTracker Red was added to each 1 ml cell suspension, followed by 30 min of incubation at 37°C with 5% CO2. The cells were resuspended in 100 μl of annexin binding buffer and 5 μl of Alexa Fluor 488 annexin V was added to the suspension and incubated for 15 min. Finally, 400 μl of annexin-binding buffer was added and the stained cells were detected by flow cytometry. The fluorescence emission at 530 and 585 nm was measured using a BD Accuri™ C6 flow cytometer and analyzed using FCS express 5 plus De Novo software.
smiles,measurement,setting,value
O=C(/C=C/c1cccc(OCc2ccccc2)c1)c1ccc(O)cc1 [Compound 15k],annexin V red fluorescence over time,"HCT116 cells [1]; 2, 4 or 8 μM, vs control",significantly increased annexin V red fluorescence
same,incubation time at which significant difference in annexin V fluorescence appeared,HCT116 cells [1]; vehicle vs 15k,12 h
same,cleavage of total caspase 3,caspase 3,induced the cleavage of total caspase
same,level of N-cadherin,N-cadherin,significantly downregulated
same,Bak levels,Bak,no significant effect
same,levels of DVL3,DVL3,significantly decreased
same,expression levels of cyclin B1,cyclin B1,significant increase
same,expression of α-tubulin,α-tubulin,significant decrease
same,levels of Bcl-2,Bcl-2,significantly decreased
same,levels of c-Myc protein,c-Myc,significant decrease
same,E-cadherin expression (Western blot),E-cadherin,not significantly altered
same,cleavage of Bax p21 to p18,Bax (p21 and p18),induced the cleavage of the protein Bax (p 21)
same,"cells undergoing apoptosis, quadrant II (Q2)","HCT116 cells [2]; 2 μM, vehicle 2.83%",47%
same,viability at 2 µM,"HCT116 cells [2]; Homo sapiens, HCT-116, 2 μM, vehicle 90.66%, read-out: viable cells in quadrant I (Q1)",35.8%
same,viability at 4 µM,"HCT116 cells [2]; Homo sapiens, HCT-116, 4 μM, vehicle 90.66%, read-out: viable cells in quadrant I (Q1)",36%

# From PMC5974752, “Bax/Tubulin/Epithelial-Mesenchymal Pathways Determine the Efficacy of Silybin Analog HM015k in Colorectal Cancer Cell Growth and Metastasis” (Frontiers in Pharmacology, 2018)
